From US20250230193A1, “CYCLIC COMPOUND HAVING SELECTIVE KRAS INHIBITORY EFFECT ON HRAS AND NRAS” (CHUGAI SEIYAKU KABUSHIKI KAISHA, priority 2022, published 2025)
Where a SMILES comes first, the peptide text is derived from it. Bridges are numbered along the chain shown (N, C = ends). [ ]: non-standard residue; d: D form. The star is where a group is joined. hPhe(3,5-F2-4-CF3) = N[C@@H](CCc1cc(F)c(C(F)(F)F)c(F)c1)C(=O)O; NPrPhe(4-CF3) = CCCN[C@@H](Cc1ccc(C(F)(F)F)cc1)C(=O)O; NMeAbu(4,4,4-F3) = CN[C@@H](CC(F)(F)F)C(=O)O; NMeGly(cPent) = CN[C@H](C(=O)O)C1CCCC1; Ac4c(3,3-F2) = NC1(C(=O)O)CC(F)(F)C1; Nva(3-Et) = CCC(CC)[C@H](N)C(=O)O; NMeD = CN[C@@H](CC(=O)O)C(=O)O; Ac4c(3-oxa) = NC1(C(=O)O)COC1; NMeL = CN[C@@H](CC(C)C)C(=O)O; αMeS = C[C@](N)(CO)C(=O)O; Iva = CC[C@](C)(N)C(=O)O; Morpholide = C1CN(*)CCO1; Ac5c = NC1(C(=O)O)CCCC1; Aze = O=C(O)[C@@H]1CCN1; Sar = CNCC(=O)O; tBu = CC(C)(C)*

What was measured:
[1] = target: GDP-bound NRAS wild-type protein (Homo sapiens, UniProt P01111); assay: Binding to NRAS by surface plasmon resonance (SPR), Single Cycle Kinetics; settings: KD ratio NRAS/KRAS, SPR
Sequence of GDP-bound NRAS wild-type protein (P01111 whole entry): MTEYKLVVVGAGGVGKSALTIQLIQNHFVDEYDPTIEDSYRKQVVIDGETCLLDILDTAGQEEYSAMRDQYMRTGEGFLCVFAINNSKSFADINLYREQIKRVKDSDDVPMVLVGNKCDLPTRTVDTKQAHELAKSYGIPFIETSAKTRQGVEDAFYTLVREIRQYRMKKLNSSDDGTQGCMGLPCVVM

[2] = target: GDP-bound HRAS wild-type protein (Homo sapiens, UniProt P01112); assay: Binding to HRAS by surface plasmon resonance (SPR), Single Cycle Kinetics; settings: KD ratio HRAS/KRAS, SPR
Sequence of GDP-bound HRAS wild-type protein (P01112 whole entry): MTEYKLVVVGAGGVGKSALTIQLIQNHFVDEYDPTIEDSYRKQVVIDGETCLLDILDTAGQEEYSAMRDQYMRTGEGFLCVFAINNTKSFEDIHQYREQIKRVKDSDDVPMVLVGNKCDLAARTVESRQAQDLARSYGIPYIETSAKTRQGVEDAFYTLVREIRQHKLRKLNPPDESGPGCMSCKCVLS

Structure (SMILES)	NRAS/KRAS (ratio of KD value with respect to GDP-bound NRAS wild-type protein to KD value with respect to KRAS) [1]	HRAS/KRAS (ratio of KD value with respect to GDP-bound HRAS wild-type protein to KD value with respect to KRAS) [2]
CCCN1C(=O)[C@@H]2CCN2C(=O)CN(C)C(=O)[C@H]([C@@H](C)CC)NC(=O)[C@H](CC(C)C)N(C)C(=O)C[C@@H](C(=O)N2CCOCC2)N(C)C(=O)[C@H](C2CCCC2)N(C)C(=O)[C@](C)(COC(C)(C)C)NC(=O)[C@@H]2CCCN2C(=O)[C@H](CCc2cc(F)c(C(F)(F)F)c(F)c2)NC(=O)CN(C)C(=O)[C@@H]1Cc1ccc(C(F)(F)F)cc1 [PP0800] ([NMeL]I[Sar][Aze][NPrPhe(4-CF3)][Sar][hPhe(3,5-F2-4-CF3)]P[αMeS](tBu)[NMeGly(cPent)][NMeD]-Morpholide; lactam N-11)	C (A compound having a KD ratio of 0.1 or more and less than 3 is denoted as C)	B (a compound having 3 or more and less than 10 is denoted as B)
CCCN1C(=O)[C@@H]2CCN2C(=O)CN(C)C(=O)[C@H]([C@@H](C)CC)NC(=O)[C@H](CC(C)C)N(C)C(=O)C[C@@H](C(=O)N2CCOCC2)N(C)C(=O)[C@H](C2CCCC2)N(C)C(=O)C2(COC2)NC(=O)[C@@H]2CCCN2C(=O)[C@H](CCc2cc(F)c(C(F)(F)F)c(F)c2)NC(=O)CN(C)C(=O)[C@@H]1Cc1ccc(C(F)(F)F)cc1 [PP0801] ([NMeL]I[Sar][Aze][NPrPhe(4-CF3)][Sar][hPhe(3,5-F2-4-CF3)]P[Ac4c(3-oxa)][NMeGly(cPent)][NMeD]-Morpholide; lactam N-11)	C (A compound having a KD ratio of 0.1 or more and less than 3 is denoted as C)	B (a compound having 3 or more and less than 10 is denoted as B)
CCCN1C(=O)[C@@H]2CCN2C(=O)CN(C)C(=O)[C@H]([C@@H](C)CC)NC(=O)[C@H](CC(C)C)N(C)C(=O)C[C@@H](C(=O)N2CCOCC2)N(C)C(=O)[C@H](C2CCCC2)N(C)C(=O)C2(CC(F)(F)C2)NC(=O)[C@@H]2CCCN2C(=O)[C@H](CCc2cc(F)c(C(F)(F)F)c(F)c2)NC(=O)CN(C)C(=O)[C@@H]1Cc1ccc(C(F)(F)F)cc1 [PP0802] ([NMeL]I[Sar][Aze][NPrPhe(4-CF3)][Sar][hPhe(3,5-F2-4-CF3)]P[Ac4c(3,3-F2)][NMeGly(cPent)][NMeD]-Morpholide; lactam N-11)	C (A compound having a KD ratio of 0.1 or more and less than 3 is denoted as C)	B (a compound having 3 or more and less than 10 is denoted as B)
CCCN1C(=O)[C@@H]2CCN2C(=O)CN(C)C(=O)[C@H]([C@@H](C)CC)NC(=O)[C@H](CC(C)C)N(C)C(=O)C[C@@H](C(=O)N2CCOCC2)N(C)C(=O)[C@H](CC(F)(F)F)N(C)C(=O)C2(CCCC2)NC(=O)[C@@H]2CCCN2C(=O)[C@H](CCc2cc(F)c(C(F)(F)F)c(F)c2)NC(=O)CN(C)C(=O)[C@@H]1Cc1ccc(C(F)(F)F)cc1 [PP0803] ([NMeL]I[Sar][Aze][NPrPhe(4-CF3)][Sar][hPhe(3,5-F2-4-CF3)]P[Ac5c][NMeAbu(4,4,4-F3)][NMeD]-Morpholide; lactam N-11)	C (A compound having a KD ratio of 0.1 or more and less than 3 is denoted as C)	B (a compound having 3 or more and less than 10 is denoted as B)
CCCN1C(=O)[C@@H]2CCN2C(=O)CN(C)C(=O)[C@H](C(CC)CC)NC(=O)[C@H](CC(C)C)N(C)C(=O)C[C@@H](C(=O)N2CCOCC2)N(C)C(=O)[C@H](C2CCCC2)N(C)C(=O)C2(CCCC2)NC(=O)[C@@H]2CCCN2C(=O)[C@H](CCc2cc(F)c(C(F)(F)F)c(F)c2)NC(=O)CN(C)C(=O)[C@@H]1Cc1ccc(C(F)(F)F)cc1 [PP0804] ([NMeL][Nva(3-Et)][Sar][Aze][NPrPhe(4-CF3)][Sar][hPhe(3,5-F2-4-CF3)]P[Ac5c][NMeGly(cPent)][NMeD]-Morpholide; lactam N-11)	C (A compound having a KD ratio of 0.1 or more and less than 3 is denoted as C)	B (a compound having 3 or more and less than 10 is denoted as B)
CCCN1C(=O)CN(C)C(=O)CN(C)C(=O)[C@H]([C@@H](C)CC)NC(=O)[C@H](CC(C)C)N(C)C(=O)C[C@@H](C(=O)N(C)C)N(C)C(=O)[C@H](C2CCCC2)N(C)C(=O)[C@](C)(CC)NC(=O)[C@@H]2CCCN2C(=O)[C@H](CCc2cc(F)c(C(F)(F)F)c(F)c2)NC(=O)CN(C)C(=O)[C@@H]1Cc1ccc(C(F)(F)F)cc1 [PP0805] ([NMeL]I[Sar][Sar][NPrPhe(4-CF3)][Sar][hPhe(3,5-F2-4-CF3)]P[Iva][NMeGly(cPent)][NMeD]-NMe2; lactam N-11)	B (a compound having 3 or more and less than 10 is denoted as B)	C (A compound having a KD ratio of 0.1 or more and less than 3 is denoted as C)
